Data published in ChEMBL document CHEMBL1147640, “Antitumor agents. Part 232: Synthesis of cyclosulfite podophyllotoxin analogues as novel prototype antitumor agents” (2004).

What was measured:
Details in all cases: Homo sapiens, read-out: ED50 (the source's name)
[1] = system: 1A9; experiment: Effective dose of compound against replication of 1A9 cell line was evaluated; format: functional
[2] = system: A549; experiment: Effective dose of compound against replication of A549 cell line was evaluated; format: functional
[3] = system: HCT-8; experiment: Effective dose of compound against replication of HCT-8 cell line was evaluated; format: functional
[4] = system: HOS; experiment: Effective dose of compound against replication of HOS cell line was evaluated; format: functional
[5] = system: KB; experiment: Effective dose of compound against replication of KB cell line was evaluated; format: functional
[6] = system: KB; experiment: Effective dose of compound against replication of KB-Vin cell line was evaluated; format: functional
[7] = system: KB; experiment: Effective dose of compound against replication of KB/7d cell line was evaluated; format: functional
[8] = system: MCF7; experiment: Effective dose of compound against replication of MCF-7 cell line was evaluated; format: functional
[9] = system: PC-3; experiment: Effective dose of compound against replication of PC-3 cell line was evaluated; format: functional
[10] = system: SK-MEL-2; experiment: Effective dose of compound against replication of SK-MEL-2 cell line was evaluated; format: functional
[11] = system: U-87 MG; experiment: Effective dose of compound against replication of U87MG cell line was evaluated; format: functional, U-87MG ATCC

| SMILES | EC50 [1] | EC50 [2] | EC50 [3] | EC50 [4] | EC50 [5] | EC50 [6] | EC50 [7] | EC50 [8] | EC50 [9] | EC50 [10] | EC50 [11] |
| --- | --- | --- | --- | --- | --- | --- | --- | --- | --- | --- | --- |
| COc1cc([C@@H]2c3cc4c(cc3[C@@H](Nc3ccc([N+](=O)[O-])cc3)[C@H]3COC(=O)[C@H]23)OCO4)cc(OC)c1O | < 1.6 µM | < 0.1 µM | 1.6 µM | < 1.6 µM | 3.5 µM | 4.1 µM | 1.5 µM | 24.5 µM | 8.9 µM | 3 µM | 5.5 µM |
| COc1cc([C@@H]2c3cc4c(cc3[C@@H](Nc3ccc([N+](=O)[O-])cc3)[C@H]3COS(=O)OC[C@H]23)OCO4)cc(OC)c1O (some centres not stated) | 4.2 µM | 8 µM | 10 µM | 6 µM | 5.1 µM | 7.1 µM | 2.9 µM | 2.5 µM | > 20 µM | 7.9 µM | 8 µM |
